Data published in PMC12250835, “Novel 3-Methyl-1,6-Diazaphenothiazine as an Anticancer Agent—Synthesis, Structure, and In Vitro Anticancer Evaluation” (Molecules, 2025).

Experiments:
[1] = system: A375 amelanotic melanoma cells; assay: WST-1 cell viability assay, A375; format: cell-based; details: Homo sapiens, A-375, concentration range 1–100 µM
Description: (§1) Human A375, C32 amelanotic and COLO829, G361 melanotic melanoma cells, purchased from ATCC (ATCC Manassas, VA, USA), were incubated in a humidified 5% CO2 incubator at 37 °C. The cells were cultured in the recommended medium supplemented with inactivated fetal bovine serum and the following antibiotics: penicillin (100 U/mL), neomycin (10 μg/mL) and amphotericin B (0.25 μg/mL). Treatment with the studied compounds (B6–B10) began 24 h after seeding. The analyzed compound solutions were obtained by diluting stock solutions in a culture medium. The analysis via WST-1 assay was used for compound concentrations ranging from 1 µM to 100 µM. Other studies, concerning the assessment of intracellular GSH levels and apoptosis, were performed on the B8 and B10 derivatives at concentrations of 50 μM and 100 µM.
(§2) The viability of cells was assessed using the cell proliferation reagent WST-1. The reagent is a tetrazolium salt (slightly red) that can be reduced in viable cells to formazan dye (dark red) by mitochondrial dehydrogenases. In the analysis, WST-1 was added to cells cultured in 96-well microplates (10 µL/well) 3 h before the measurement. Absorbance at 440 nm was read using a microplate reader (Infinite 200 PRO, TECAN, Männedorf, Switzerland), and 650 nm was used as the reference wavelength. In the experiment, control samples were normalized to 100%. All the examined samples were calculated as percentages of the control.

[2] = system: COLO829 melanotic melanoma cells; assay: WST-1 cell viability assay, COLO829; format: cell-based; details: Homo sapiens, COLO-829, concentration range 1–100 µM
Description: as §1, §2

[3] = system: G361 melanotic melanoma cells; assay: WST-1 cell viability assay, G361; format: cell-based; details: Homo sapiens, G-361, concentration range 1–100 µM
Description: as §1, §2

[4] = system: normal human fibroblasts (HDF); assay: WST-1 cell viability assay, HDF; format: cell-based; details: for IC50: Homo sapiens, Fibroblast, concentration range 1–100 µM; for reduction in cell viability in comparison to the control: concentrations equal to and above 25 µM, all incubation time points
Description: [Worded in the source for another cell line; this cell line is reported under the same test.] as §1, §2

[5] = system: C32 amelanotic melanoma cells; assay: WST-1 cell viability assay, C32; format: cell-based; details: Homo sapiens, concentration range 1–100 µM
Description: as §1, §2

[6] = system: C32 amelanotic melanoma cells; assay: Mitochondrial potential assay (JC-1), C32; format: cell-based, human; details: 72 h
Description: as §1
(§3) The mitochondrial potential assay was conducted using fluorescent cationic dye JC-1, which accumulates in the mitochondria in a potential-dependent manner. After cell treatment, samples were suspended in 12.5 µL of solution 7 (JC-1) (ChemoMetec, Lillerød, Denmark) and then incubated at 37 C for 10 min. In the next step, the […] cells were centrifuged for 5 min at 400× g, washed twice with PBS and resuspended in 0.25 mL of solution 8 (DAPI) (ChemoMetec, Lillerød, Denmark). In the last step of sample preparation, cells were loaded into 8-chamber NC-Slides A8™ and analyzed immediately using the mitochondrial potential assay protocol. Scatterplots of the obtained results were used to demarcate the percentage of cells with a different mitochondrial membrane potential.

[7] = system: G361 melanotic melanoma cells; assay: DNA fragmentation assay, G361; format: cell-based, human; details: G361, 100 µM, 72 h
Description: as §1
(§4) For the DNA fragmentation assay, cells were fixed with 70% cold ethanol (24 h at 0–4 °C). In the next step of the analysis, the cell samples were washed with PBS, centrifuged, and stained with solution 3 (ChemoMetec, Lillerød, Denmark) containing DAPI and 0.1% triton X-100 in PBS. The analysis was conducted according to the DNA fragmentation assay protocol.

[8] = system: G361 melanotic melanoma cells; assay: Vitality assay, intracellular GSH level, G361; format: cell-based, human; details: 72 h
Description: as §1
(§5) All the experiments were performed using the fluorescence image cytometer NucleoCounter® NC-3000™ (ChemoMetec, Lillerød, Denmark). For the vitality assay, treatment cells were stained with solution 5 according to the manufacturer’s protocol and analysis was conducted using NucleoView NC-3000 software 2.1.25.12 (ChemoMetec, Lillerød, Denmark) according to the vitality assay protocol.

[9] = system: G361 melanotic melanoma cells; assay: Mitochondrial potential assay (JC-1), G361; format: cell-based, human; details: 72 h
Description: as §1, §3

[10] = system: C32 amelanotic melanoma cells; assay: DNA fragmentation assay, C32; format: cell-based, human; details: 72 h
Description: as §1, §4

[11] = system: C32 amelanotic melanoma cells; assay: Vitality assay, intracellular GSH level, C32; format: cell-based, human; details: 72 h
Description: as §1, §5

COLO829 cells = system: COLO829 cells; design: method as in PMID 31410885; details: 50 µM, 72 h incubation; cited from earlier work
C32 cells = system: C32 cells; design: method as in PMID 31432325; details: 50 µM, 72 h incubation; cited from earlier work

Structure (SMILES)	IC50 ([1]; A375, 24 h exposure)	IC50 ([1]; A375, 48 h exposure)	IC50 ([1]; A375, 72 h exposure)	IC50 ([2]; COLO829, 24 h exposure)	IC50 ([2]; COLO829, 48 h exposure)	IC50 ([2]; COLO829, 72 h exposure)	IC50 ([3]; G361, 24 h exposure)	IC50 ([3]; G361, 48 h exposure)	IC50 ([3]; G361, 72 h exposure)	IC50 ([5]; C32, 24 h exposure)	IC50 ([5]; C32, 48 h exposure)	IC50 ([5]; C32, 72 h exposure)	IC50 ([4]; 24 h exposure)	IC50 ([4]; 48 h exposure)	IC50 ([4]; 72 h exposure)	reduction in cell viability in comparison to the control [4]	depolarized cells, decreased mitochondrial membrane potential (Q1lr) ([6]; C32, 50 µM)	depolarized cells, decreased mitochondrial membrane potential (Q1lr) ([6]; C32, 100 µM)	cells with fragmented DNA (M1) [7]	cells with low GSH levels (Q1ll, GSH-depleted cells) ([8]; G361, 50 µM)	further results
Cc1cnc2c(c1)Sc1ncccc1N2 [B6, 10H-3-methyl-1,6-diazaphenothiazine]	226 µM	97.9 µM	40 µM	262 µM	59 µM	30.2 µM	134 µM	56.2 µM	22.9 µM	94.3 µM	76.1 µM	18.1 µM	83.1 µM	40.1 µM	31.9 µM	> 20%					
Cc1cnc2c(c1)Sc1ncccc1N2C [B7, 3,10-dimethyl-1,6-diazaphenothiazine]	235 µM	99.5 µM	17.6 µM	292 µM	64.8 µM	35.5 µM	194 µM	75.4 µM	41.6 µM	91.4 µM	89.7 µM	22.2 µM	55.4 µM	31.7 µM	30.5 µM	> 20%					
Cc1cnc2c(c1)Sc1ncccc1N2Cc1ccccc1 [B10, 3-methyl-10-benzyl-1,6-diazaphenothiazine]	511 µM	109 µM	60.4 µM	178 µM	75.5 µM	37 µM	132 µM	100 µM	43 µM	95.8 µM	87 µM	42.7 µM	1930 µM	932 µM	656 µM		15%	21%	10%	13%	cells with low GSH levels (Q1ll, GSH-depleted cells) ([8]; G361, 100 µM): 25%; decrease of viability of cells ([4]; at any measurement point (1–100 µM; 24 h, 48 h, 72 h)): ≤ 10%; depolarized (early apoptotic) cells (Q1lr) ([9]; G361, 50 µM): 6%; depolarized (early apoptotic) cells (Q1lr) ([9]; G361, 100 µM): 17%; cells with fragmented DNA (M1) ([10]; C32, 100 µM): 10%; cells with low GSH levels (Q1ll, GSH-depleted cells) ([11]; C32, 50 µM): 12%; cells with low GSH levels (Q1ll, GSH-depleted cells) ([11]; C32, 100 µM): 22%
CN(C)/N=N/c1[nH]cnc1C(N)=O [dacarbazine]																					maximum reduction in COLO829 cell viability (COLO829 cells): about 25%; reduction in C32 cell viability (the analyzed parameter) (C32 cells): about 50%

Now from value to compound, other results behind:

IC50 ([1]; A375, 24 h exposure)	IC50 ([1]; A375, 48 h exposure)	IC50 ([1]; A375, 72 h exposure)	IC50 ([2]; COLO829, 24 h exposure)	IC50 ([2]; COLO829, 48 h exposure)	IC50 ([2]; COLO829, 72 h exposure)	IC50 ([3]; G361, 24 h exposure)	IC50 ([3]; G361, 48 h exposure)	IC50 ([3]; G361, 72 h exposure)	IC50 ([5]; C32, 24 h exposure)	IC50 ([5]; C32, 48 h exposure)	IC50 ([5]; C32, 72 h exposure)	Structure (SMILES)	IC50 ([4]; 24 h exposure)	IC50 ([4]; 48 h exposure)	IC50 ([4]; 72 h exposure)	reduction in cell viability in comparison to the control [4]	depolarized cells, decreased mitochondrial membrane potential (Q1lr) ([6]; C32, 50 µM)	depolarized cells, decreased mitochondrial membrane potential (Q1lr) ([6]; C32, 100 µM)	cells with fragmented DNA (M1) [7]	cells with low GSH levels (Q1ll, GSH-depleted cells) ([8]; G361, 50 µM)	further results
393 µM	166 µM	91.2 µM	220 µM	64.1 µM	31.4 µM	168 µM	79.9 µM	24.6 µM	129 µM	105 µM	59.6 µM	C=CCN1c2cccnc2Sc2cc(C)cnc21 [B8, 3-metyhl-10-allyl-1,6-diazaphenothiazine]		142 µM	125 µM		18%	25%	12%	21%	cells with low GSH levels (Q1ll, GSH-depleted cells) ([8]; G361, 100 µM): 33%; viability reduction in comparison to the control ([4]; 75 µM and 100 µM, 48 h and 72 h of incubation): > 20%; depolarized (early apoptotic) cells (Q1lr) ([9]; G361, 50 µM): 13%; depolarized (early apoptotic) cells (Q1lr) ([9]; G361, 100 µM): 26%; cells with fragmented DNA (M1) ([10]; C32, 50 µM): 11%; cells with fragmented DNA (M1) ([10]; C32, 100 µM): 22%; cells with low GSH levels (Q1ll, GSH-depleted cells) ([11]; C32, 50 µM): 20%; cells with low GSH levels (Q1ll, GSH-depleted cells) ([11]; C32, 100 µM): 36%
698 µM	171 µM	138 µM	136 µM	61.5 µM	49.5 µM	116 µM	97 µM	57 µM	120 µM	167 µM	66.4 µM	C#CCN1c2cccnc2Sc2cc(C)cnc21 [B9, 3-methyl-10-propargyl-1,6-diazaphenothiazine]	57.4 µM	22.2 µM	11.3 µM	> 20%					
